Assay results reported in BindingDB's records for doi:10.1021/jm701311r (Georgia Institute of Technology, 2008).

Key:
Assay in all cases: AE Enzyme Inhibition Assay
Legumain [1] = biological target: T1, Legumain (Schistosoma mansoni, UniProt Q9NFY9)
T1 sequence (Q9NFY9 whole entry): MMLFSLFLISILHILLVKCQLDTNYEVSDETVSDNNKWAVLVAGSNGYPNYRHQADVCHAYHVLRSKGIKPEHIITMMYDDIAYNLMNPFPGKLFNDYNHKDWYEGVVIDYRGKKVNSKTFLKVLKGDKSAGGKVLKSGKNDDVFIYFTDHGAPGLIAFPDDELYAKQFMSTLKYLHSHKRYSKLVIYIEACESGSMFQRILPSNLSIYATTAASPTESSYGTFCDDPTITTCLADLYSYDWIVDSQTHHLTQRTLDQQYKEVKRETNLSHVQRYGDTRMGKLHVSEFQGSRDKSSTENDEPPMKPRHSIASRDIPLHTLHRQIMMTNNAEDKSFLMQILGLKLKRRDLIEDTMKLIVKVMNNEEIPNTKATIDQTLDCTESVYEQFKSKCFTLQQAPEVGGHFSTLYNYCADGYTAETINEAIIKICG
Experimental: (§1) AE activity in the induction medium was measured with the substrate Cbz-Ala-Ala-Asn-AMC. In a black 96-well microtiter plate, aza-peptidyl inhibitors were added to the reaction buffer containing the activated enzyme, and allowed to incubate at room temperature for 20 min. Then, substrate Cbz- Ala-Ala-Asn-AMC was added and the reaction allowed proceeding for 20 min. Plotting the relative fluorescence units (RFU)/min against the inhibitor concentration (uM) permitted calculation of the IC50 value.

Legumain [2] = biological target: T2, Legumain (Ixodes ricinus, UniProt Q6PRC7); conditions: 25 °C
T2 sequence (Q6PRC7 whole entry): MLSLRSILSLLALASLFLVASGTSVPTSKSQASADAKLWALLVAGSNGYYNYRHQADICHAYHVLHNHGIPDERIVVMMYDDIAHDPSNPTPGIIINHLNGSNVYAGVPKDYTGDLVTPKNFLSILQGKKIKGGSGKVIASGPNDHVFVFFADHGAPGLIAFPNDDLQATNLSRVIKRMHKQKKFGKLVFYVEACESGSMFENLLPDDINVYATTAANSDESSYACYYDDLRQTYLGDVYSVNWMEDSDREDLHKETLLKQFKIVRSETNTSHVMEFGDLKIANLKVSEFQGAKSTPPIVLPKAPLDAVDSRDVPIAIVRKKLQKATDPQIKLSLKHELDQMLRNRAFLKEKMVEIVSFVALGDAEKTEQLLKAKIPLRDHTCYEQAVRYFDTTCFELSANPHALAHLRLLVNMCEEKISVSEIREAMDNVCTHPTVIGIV
Experimental: as §1

[3] = biological target: T3, Clan CD, family C13, asparaginyl endopeptidase-like cysteine peptidase (Trichomonas vaginalis (strain ATCC PRA-98 / G3), UniProt A2DYT2)
T3 sequence (A2DYT2 whole entry): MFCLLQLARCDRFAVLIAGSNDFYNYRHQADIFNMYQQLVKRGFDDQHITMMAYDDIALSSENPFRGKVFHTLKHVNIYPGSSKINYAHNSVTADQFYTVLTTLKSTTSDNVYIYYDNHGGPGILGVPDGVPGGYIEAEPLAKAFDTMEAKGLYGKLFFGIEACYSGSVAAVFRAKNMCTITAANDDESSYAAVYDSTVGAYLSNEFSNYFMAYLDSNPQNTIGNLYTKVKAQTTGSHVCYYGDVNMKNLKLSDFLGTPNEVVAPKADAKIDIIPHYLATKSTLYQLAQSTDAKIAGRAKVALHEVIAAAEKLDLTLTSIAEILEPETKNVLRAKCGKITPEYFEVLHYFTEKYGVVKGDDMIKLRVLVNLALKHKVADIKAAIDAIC
Experimental: as §1

Compound | IC50 (Legumain [1]; pH 6.8, 22 °C) [nM] | IC50 (Legumain [2]) [nM] | IC50 ([3]; 25 °C) [nM] | IC50 (Legumain [1]; 25 °C) [nM] | IC50 ([3]; pH 6.8, 22 °C) [nM]
C[C@H](NC(=O)OCc1ccccc1)C(=O)N[C@@H](C)C(=O)NN(CC(N)=O)C(=O)C=CC(=O)N(Cc1ccccc1)Cc1ccccc1 [benzyl N-[(1S)-1-{[(2S)-1-[(2E)-N,N-dibenzyl-3-[N-(carbamoylmethyl)hydrazido]prop-2-enamide]-1-oxopropan-2-yl]carbamoyl}ethyl]carbamate] | 45 | 450 | 10 | – | –
C[C@H](NC(=O)OCc1ccccc1)C(=O)N[C@@H](C)C(=O)NN(CC(N)=O)C(=O)C=Cc1cccnc1 [benzyl N-[(1S)-1-{[(2S)-1-[(2E)-N-(carbamoylmethyl)-3-(pyridin-3-yl)prop-2-enehydrazido]-1-oxopropan-2-yl]carbamoyl}ethyl]carbamate] | > 2000 | 15000 | 8000 | – | –
C[C@H](NC(=O)OCc1ccccc1)C(=O)N[C@@H](C)C(=O)NN(CC(N)=O)C(=O)C=CC(=O)N1CCc2ccccc2C1 [benzyl N-[(1S)-1-{[(2S)-1-[(2E)-N-(carbamoylmethyl)-4-oxo-4-(1,2,3,4-tetrahydroisoquinolin-2-yl)but-2-enehydrazido]-1-oxopropan-2-yl]carbamoyl}ethyl]carbamate] | – | 25 | 10 | 200 | –
C[C@H](NC(=O)OCc1ccccc1)C(=O)N[C@@H](C)C(=O)NN(CC(N)=O)C(=O)C=CC(=O)N1CCCc2ccccc21 [benzyl N-[(1S)-1-{[(2S)-1-[(2E)-N-(carbamoylmethyl)-4-oxo-4-(1,2,3,4-tetrahydroquinolin-1-yl)but-2-enehydrazido]-1-oxopropan-2-yl]carbamoyl}ethyl]carbamate] | – | 4 | 3.5 | 70 | –
C[C@H](NC(=O)OCc1ccccc1)C(=O)N[C@@H](C)C(=O)NN(CC(N)=O)C(=O)C=CC(=O)N1CC=C(c2ccccc2)CC1 [benzyl N-[(1S)-1-{[(2S)-1-[(2E)-N-(carbamoylmethyl)-4-oxo-4-(4-phenyl-1,2,3,6-tetrahydropyridin-1-yl)but-2-enehydrazido]-1-oxopropan-2-yl]carbamoyl}ethyl]carbamate] | – | 85 | 10 | 750 | –
C[C@H](NC(=O)OCc1ccccc1)C(=O)N[C@@H](C)C(=O)NN(CC(N)=O)C(=O)C=CC(=O)N(Cc1ccccc1)Cc1cccc2ccccc12 [benzyl N-[(1S)-1-{[(2S)-1-[(2E)-N-benzyl-3-[N-(carbamoylmethyl)hydrazido]-N-(naphthalen-1-ylmethyl)prop-2-enamide]-1-oxopropan-2-yl]carbamoyl}ethyl]carbamate] | – | 6 | < 1 | 62 | –
C[C@H](NC(=O)OCc1ccccc1)C(=O)N[C@@H](C)C(=O)NN(CC(N)=O)C(=O)C=CC(=O)N(Cc1ccccc1)Cc1ccc2ccccc2c1 [benzyl N-[(1S)-1-{[(2S)-1-[(2E)-N-benzyl-3-[N-(carbamoylmethyl)hydrazido]-N-(naphthalen-2-ylmethyl)prop-2-enamide]-1-oxopropan-2-yl]carbamoyl}ethyl]carbamate] | – | 8 | 6 | 70 | –
C[C@H](NC(=O)OCc1ccccc1)C(=O)N[C@@H](C)C(=O)NN(CC(N)=O)C(=O)C=CC(=O)N(Cc1ccccc1)Cc1ccc(F)cc1 [benzyl N-[(1S)-1-{[(2S)-1-[(2E)-N-benzyl-3-[N-(carbamoylmethyl)hydrazido]-N-[(4-fluorophenyl)methyl]prop-2-enamide]-1-oxopropan-2-yl]carbamoyl}ethyl]carbamate] | – | 700 | < 1 | 60 | –
COc1ccc(CN(Cc2ccccc2)C(=O)C=CC(=O)N(CC(N)=O)NC(=O)[C@H](C)NC(=O)[C@H](C)NC(=O)OCc2ccccc2)cc1 [benzyl N-[(1S)-1-{[(2S)-1-[(2E)-N-benzyl-3-[N-(carbamoylmethyl)hydrazido]-N-[(4-methoxyphenyl)methyl]prop-2-enamide]-1-oxopropan-2-yl]carbamoyl}ethyl]carbamate] | 90 | 12 | 2.3 | – | –
C[C@H](NC(=O)OCc1ccccc1)C(=O)N[C@@H](C)C(=O)NN(CC(N)=O)C(=O)C=CC(=O)N(Cc1ccccc1)c1ccccc1 [benzyl N-[(1S)-1-{[(2S)-1-[(2E)-N-benzyl-3-[N-(carbamoylmethyl)hydrazido]-N-phenylprop-2-enamide]-1-oxopropan-2-yl]carbamoyl}ethyl]carbamate] | 70 | < 1 | < 1 | – | –
C[C@H](NC(=O)OCc1ccccc1)C(=O)N[C@@H](C)C(=O)NN(CC(N)=O)C(=O)C=CC(=O)NCc1ccccc1 [benzyl N-[(1S)-1-{[(2S)-1-[(2E)-N-benzyl-3-[N-(carbamoylmethyl)hydrazido]prop-2-enamide]-1-oxopropan-2-yl]carbamoyl}ethyl]carbamate] | 1000 | 200 | – | – | 10
CCOC(=O)C=CC(=O)N(CC(N)=O)NC(=O)[C@H](C)NC(=O)[C@H](C)NC(=O)CCCC[C@@H]1SC[C@@H]2NC(=O)N[C@@H]21 [ethyl (2E)-4-[(2S)-2-[(2S)-2-{5-[(3aS,4S,6aR)-2-oxo-hexahydro-1H-thieno[3,4-d]imidazolidin-4-yl]pentanamido}propanamido]-N'-(carbamoylmethyl)propanehydrazido]-4-oxobut-2-enoate] | – | 2.8 | < 10 | 10 | –
